Measured values reported in US9738656B2, “Pyranodipyridine compound” (Eisai R&D Management Co., Ltd., priority 2015, dated 2017).
Like-named read-outs stand apart in the source and are kept apart here.

Key:
[1] = system: AMPA receptor; test: AMPA-induced intraneuronal calcium entry-suppressing action (primary culture of embryonic rat cerebral cortex neurons, Fura 2-AM); type: cell-based; conditions: AMPA stimulation, intracellular calcium increase, read-out: IC50 for AMPA inhibition
From the text: The present inventors conducted the following tests, in order to confirm the effects of the compounds of the present invention. With regard to the AMPA receptor inhibitory action of the compounds, AMPA-induced intraneuronal calcium entry-suppressing action was examined using a primary culture system of embryonic rat cerebral cortex neurons. With regard to the anticonvulsant action of the compounds, 6 Hz (44 mA) stimulation-induced convulsions known as a treatment-resistant convulsion model were used. AMPA inhibitor-induced central nervous system depressant action such as loss of coordination was evaluated using a rotarod performance test.
AMPA-Induced Intraneuronal Calcium Entry-Suppressing Action
<Culture conditions> Whole fetuses were removed from the uteri of Wistar rats at embryonic day 18 (Charles River Japan) anesthetized with isoflurane. Whole brains were removed from the whole fetuses, and the cerebral cortex was separated in Leibovitz's L-15 medium or Hanks balanced salt solution containing 20% fetal bovine serum. The resulting material was treated with trypsin/DNase solution at 37° C. for 45 to 60 minutes. After the serum was added to stop the trypsin reaction, the resulting material was centrifuged at 1200 to 1500 rpm for 3 to 5 minutes. After the supernatant was removed, Neurobasal medium (containing 2% B-27 supplement and the like; hereinafter “Neurobasal medium”) was added, and the cells were uniformly dispersed by gently pipetting. The cell suspension was slightly stirred, and then filtered through a nylon mesh filter. Viable cells were counted using a hemocytometer, and diluted with Neurobasal medium to 8 to 10×10^5 cells/mL. The cells were seeded into 96 well plates at 100 μL per well and cultured in a CO2 incubator (5% CO2, 37° C.). The medium was replaced after 24 hours, and neurons cultured for 7 to 21 days were used.
On the day of the assay, the medium was removed and replaced with a calcium measurement solution containing 5 to 10 μmol/L of Fura 2-AM (140 mmol/L sodium chloride, 5 mmol/L potassium chloride, 2 mmol/L magnesium chloride, 3 mmol/L calcium chloride, 24 mmol/L D(+)-glucose, 10 mmol/L HEPES, 1 μmol/L MK-801, pH 7.4), and the cells were treated in a CO2 incubator (5% CO2, 37° C.) for 1 to 2 hours. The calcium measurement solution containing the Fura-2 AM solution was subsequently removed, and the neurons in each well were washed twice with the calcium measurement solution for each well, and then 50 μL of the calcium measurement solution was added to each well. Subsequently, 50 μL of a test compound or medium prepared at a concentration 3-fold higher than the final concentration was added, and the cells were pre-treated for about 15 minutes. The plates were subsequently placed on the Fluorescence Drug Screening System 6000 (Hamamatsu Photonics K.K.). The cells were stimulated by adding to each well 50 μL of an AMPA stimulating solution prepared to 3.3 μmol/L with the calcium measurement solution. Changes in calcium concentration were measured as the changes in fluorescence intensity at excitation wavelengths of 340 nm and 380 nm (measurement wavelength: 540 nm). The rate of change of the intracellular calcium concentration was calculated according to the following equation: Rate of increase of the intracellular calcium concentration (% control)=(Tpost−Tpre)/(Cpost−Cpre)×100
wherein Tpost: the proportion of fluorescence of sample wells after stimulation; Tpro: the proportion of fluorescence of sample wells before stimulation; Cpost: the proportion of fluorescence of control wells after stimulation; and Cpre: the proportion of fluorescence of control wells before stimulation.
The IC50 value of the test compound for AMPA inhibition was determined from the rates of increase of the intracellular calcium concentration at various concentrations.

[2] = system: male ddY mice; test: Rotarod performance test-1; type: in vivo; conditions: oral, 25 minutes after administration, dose at which time of fall is reduced to 50% of medium control
Method: (§1) With regard to the AMPA receptor inhibitory action of the compounds, AMPA-induced intraneuronal calcium entry-suppressing action was examined using a primary culture system of embryonic rat cerebral cortex neurons. […] AMPA inhibitor-induced central nervous system depressant action such as loss of coordination was evaluated using a rotarod performance test.
Rotarod Performance Test-1
(§2) A rotarod (MK-660C from Muromachi Kikai Co., Ltd.) was used for the measurement. The rod (bar) was controlled to be gradually accelerated from its stationary state to a speed of 40 rotations/minute after 180 seconds. As the animals, 5 or 6-week-old male ddY mice (Japan SLC, Inc.) were used. On the day on which the test was performed, the mice were trained under the above-described measurement conditions, and mice that were able to ride on the rod for 1 minute or longer with good reproducibility were selected and subjected to the test.
Each of the compounds was dissolved in a medium (a solution prepared by adding DMSO to a 0.5% methylcellulose solution to a final concentration of 10%. As required, 0.5 to 5% of 1 mol/L hydrochloric acid and 5% Cremophor™ were added), and then orally administered to the mice in optimum four doses between 0.5 to 10 mg/kg. As the control, only the medium was orally administered. After a lapse of 25 minutes from the oral administration of each compound, the mice were subjected to the rotarod performance test. Five to twenty-five mice were used for each compound group.

[3] = system: male ddY mice; test: Murine 6 Hz convulsion models (6 Hz, 44 mA corneal stimulation); type: in vivo; conditions: for ED50: Mus musculus, 25 min; for Therapeutic Index: TD50/ED50 (rotarod test-1 / 6 Hz convulsion model)
Method: as §1
Immediately after the rotarod performance test-1 was completed, the cornea was stimulated by passing an electrical current (6 Hz, 44 mA, 0.2-millisecond pulse, for 3 seconds) from a copper electrode moistened with physiological saline, and the presence or absence of the development of a seizure was observed. The seizure was determined by the development of akinesia, jaw and forelimb clonus, whisker tremors, and Straub tail.
Further, for the purpose of evaluating the safety margin of each of the compounds of the present invention, the therapeutic index (TD50/ED50) was calculated by comparing the seizure inhibitory action (ED50) in the 6 Hz convulsion models and the neurotoxic action (TD50) in the rotarod performance test-1.

[4] = system: male ddY mice; test: Rotarod performance test-2; type: in vivo; conditions: for Time of Fall: mice, oral at the ED50 dose of the 6 Hz model, 25 minutes after administration; for Ratio Relative to the Control Compound: time of fall relative to control compound
Method: Rotarod Performance Test-2
as §2
As the control, only the medium was orally administered. After a lapse of 25 minutes from the oral administration of each compound, the mice were subjected to the rotarod performance test. Five or six mice were used for each compound group. For each compound, the time until the mice fell from the rotarod was measured.

[5] = mice, 6 Hz 44 mA stimulation-induced seizure, oral, after rotarod test-1 (25 minutes after administration), read-out: ED50

Compound	IC50 [1] [µM]	TD50 [2]	ED50 ([3]; po) [mg/kg]	Therapeutic Index ([3]; mice)	Time of Fall ([4]; Table 4) [s]	Ratio Relative to the Control Compound ([4]; Table 4)	ED50 [3, 5] [mg/kg]	Time of Fall ([4]; Table 3) [s]	Ratio Relative to the Control Compound ([4]; Table 3)
N#Cc1c(F)cccc1-c1cc2c(n(-c3cncnc3)c1=O)COc1cccnc1-2 [Example 18, 2-fluoro-6-(8-oxo-7-(pyrimidin-5-yl)-7,8-dihydro-6H-pyrano[3,2-b:5,4-b′]dipyridin-9-yl)benzonitrile]	0.029	4.03 mg/kg, p.o.	2	2.02	102.2	7.1	–	–	–
O=c1c(-c2c(F)cccc2F)cc2c(n1-c1cccnc1)COc1cccnc1-2 [Referential Example 1, 9-(2,6-difluorophenyl)-7-(pyridin-3-yl)-6H-pyrano[3,2-b:5,4-b′]dipyridin-8(7H)-one]	0.0441	5.16 mg/kg, p.o.	–	3.66	–	–	1.41	110.7	9.1
N#Cc1ncccc1-c1cc2c(n(-c3ccccc3)c1=O)COc1cc(F)cnc1-2 [Example 13, 3-(3-fluoro-8-oxo-7-phenyl-7,8-dihydro-6H-pyrano[3,2-b:5,4-b′]dipyridin-9-yl)picolinonitrile]	0.0675	3.89 mg/kg, p.o.	2.25	1.73	–	–	–	84.8	7.0
O=c1c(-c2c(F)c(F)cc(F)c2F)cc2c(n1-c1cccnc1)COc1cccnc1-2 [Example 6, 7-(pyridin-3-yl)-9-(2,3,5,6-tetrafluorophenyl)-6H-pyrano[3,2-b:5,4-b′]dipyridin-8(7H)-one]	0.0346	4.44 mg/kg, p.o.	2.86	1.55	–	–	–	68.0	5.6
N#Cc1c(F)cccc1-c1cc2c(n(-c3cccnc3)c1=O)COc1cc(F)cnc1-2 [Example 14, 2-fluoro-6-(3-fluoro-8-oxo-7-(pyridin-3-yl)-7,8-dihydro-6H-pyrano[3,2-b:5,4-b′]dipyridin-9-yl)benzonitrile]	0.0194	4.76 mg/kg, p.o.	2.09	2.27	139.2	9.7	–	–	–
Cc1ccc(-n2c3c(cc(-c4cccc(F)c4C#N)c2=O)-c2ncccc2OC3)cn1 [Example 3, 2-fluoro-6-(7-(6-methylpyridin-3-yl)-8-oxo-7,8-dihydro-6H-pyrano[3,2-b:5,4-b′]dipyridin-9-yl)benzonitrile]	0.0104	2.47 mg/kg, p.o.	1.21	2.04	–	–	–	124.7	10.2
N#Cc1ncccc1-c1cc2c(n(-c3ccsc3)c1=O)COc1cccnc1-2 [Example 7, 3-(8-oxo-7-(thiophen-3-yl)-7,8-dihydro-6H-pyrano[3,2-b:5,4-b′]dipyridin-9-yl)picolinonitrile]	0.0155	1.70 mg/kg, p.o.	0.97	1.75	–	–	–	71.7	5.9
N#Cc1c(F)cccc1-c1cc2c(n(-c3cccnc3)c1=O)COc1cccc(F)c1-2 [Example 16, 2-fluoro-6-(10-fluoro-3-oxo-4-(pyridin-3-yl)-4,5-dihydro-3H-chromeno[3,4-b]pyridin-2-yl)benzonitrile]	< 0.008	1.73 mg/kg, p.o.	1.05	1.65	92.8	6.5	–	–	–
N#Cc1nccnc1-c1cc2c(n(-c3ccsc3)c1=O)COc1cccnc1-2 [Example 8, 3-(8-oxo-7-(thiophen-3-yl)-7,8-dihydro-6H-pyrano[3,2-b:5,4-b′]dipyridin-9-yl)pyrazine-2-carbonitrile]	0.0701	>8 mg/kg, p.o.	–	>1.65	–	–	4.85	65.8	5.4
Cc1ccc(-n2c3c(cc(-c4cccc(F)c4Cl)c2=O)-c2ncccc2OC3)cn1 [Example 4, 9-(2-chloro-3-fluorophenyl)-7-(6-methylpyridin-3-yl)-6H-pyrano[3,2-b:5,4-b′]dipyridin-8(7H)-one]	0.0283	3.90 mg/kg, p.o.	2.33	1.67	–	–	–	73.2	6.0
O=c1c(-c2ccccc2F)cc2c(n1-c1ccccc1)COc1cccnc1-2 [Example 9, 9-(2-fluorophenyl)-7-phenyl-6H-pyrano[3,2-b:5,4-b′]dipyridin-8(7H)-one]	0.0509	9.55 mg/kg, p.o.	–	2.83	–	–	3.38	109.7	9.0
Cc1c(F)cccc1-c1cc2c(n(-c3cccnc3)c1=O)COc1cccnc1-2 [Example 22, 9-(3-fluoro-2-methylphenyl)-7-(pyridin-3-yl)-6H-pyrano[3,2-b:5,4-b′]dipyridin-8(7H)-one]	0.0533	6.19 mg/kg, p.o.	–	1.91	102.8	7.2	3.23	–	–
N#Cc1ncccc1-c1cc2c(n(-c3ccccc3F)c1=O)COc1cccnc1-2 [Example 12, 3-(7-(2-fluorophenyl)-8-oxo-7,8-dihydro-6H-pyrano[3,2-b:5,4-b′]dipyridin-9-yl)picolinonitrile]	0.033	3.06 mg/kg, p.o.	1.66	1.84	–	–	–	80.5	6.6
